Assays:
Format in all cases: in vivo
Barley = assay: Growth accelerating effect on barley (pot grown); details: 200 L per 10 a, applied 22 days after seeding, measured 35 days after seeding
Protocol: Barley was seeded in a pot and grown. The soil used was black soil. The plants were set at 4 plants/pot and 4 to 6 pots/area. A chemical fertilizer (containing 8% of nitrogen, phosphoric acid and potassium respectively) as a basal fertilizer was applied so that each of nitrogen, phosphoric acid and potassium was 5 kg per 10 a. 22 days after seeding, 200 L per 10 a of aqueous solutions containing 0.006 ppm, 0.06 ppm or 0.6 ppm, of 5-amino-4-hydroxypentanoic acid was applied. 35 days after seeding, the plant height, tillering and dry weight of the above-ground part were measured.

Komatsuna turnip green = assay: Growth accelerating effect on Komatsuna turnip green (field grown); details: 0.06 ppm
Protocol: Komatsuna turnip green was seeded and grown at a field. The soil used was red clay. The plants were set at 40 to 52 plants/section and 2 to 3 sections/area. A coated fertilizer (containing 13% nitrogen, 11% phosphoric acid and 13% potassium) as a basal fertilizer was applied so that nitrogen was 50 kg per 10 a. 22 days after seeding, 1000 L per 10 a of an aqueous solution containing 0.06 ppm of 5-amino-4-hydroxypentanoic acid was applied twice. 42 days after seeding, the fresh weight of the above-ground part was measured.

Radish = assay: Growth accelerating effect on radish (pot grown); details: 200 L per 10 a, applied 15 and 21 days after seeding, measured 28 days after seeding
Protocol: Radish was seeded in a pot and grown. The soil used was a sterilized compost containing fertilizer components (180 mg/L of nitrogen, 120 mg/L of phosphoric acid, 220 mg/L of potassium). The plants were set at 4 plants/pot and 4 pots/area. 15 days after and 21 days after seeding, 200 L per 10 a of aqueous solutions containing 0.06 ppm or 0.6 ppm of 5-amino-4-hydroxypentanoic acid was applied. 28 days after seeding, the fresh weight of the edible part was measured.

Garland chrysanthemum = assay: Growth accelerating effect on garland chrysanthemum (pot grown); details: 200 L per 10 a, applied 4, 5, 6 and 7 weeks after seeding, measured 8 weeks after seeding
Protocol: Garland chrysanthemum was seeded in a pot and grown. The soil used was a sterilized compost containing fertilizer components (180 mg/L of nitrogen, 120 mg/L of phosphoric acid, 220 mg/L of potassium). The plants were set at 4 plants/pot and 4 pots/area. 4, 5, 6 and 7 weeks after seeding, 200 L per 10 a of aqueous solutions containing 0.06 ppm or 0.6 ppm of 5-amino-4-hydroxypentanoic acid was applied. 8 weeks after seeding, the fresh weight of the above-ground part was measured.

Broccoli = assay: Growth accelerating effect on broccoli (pot grown); details: 0.6 ppm
Protocol: Commercial young plants were settled in a pot and grown. The soil used was a sterilized compost containing fertilizer components (180 mg/L of nitrogen, 120 mg/L of phosphoric acid, 220 mg/L of potassium). The plants were set at 1 plant/pot and 4 pots/area. Every week (2 weeks through 10 weeks) after settling, 200 L per 10 a of an aqueous solution containing 0.6 ppm of 5-amino-4-hydroxypentanoic acid was applied. 11 weeks after settling, the fresh weight of the edible part was measured.

## NCC(O)CCC(=O)O (centres unmarked) [5-amino-4-hydroxypentanoic acid]
Barley; 0.006 ppm aqueous solution
  Plant length (average): 19.4 cm
Barley; 0.006 ppm
  Dry weight of above-ground part (average): 103 mg
  Tillering (average): 3.50
Barley; 0.06 ppm aqueous solution
  Plant length (average): 20.1 cm
Barley; 0.06 ppm
  Dry weight of above-ground part (average): 103 mg
  Tillering (average): 3.53
Barley; 0.6 ppm aqueous solution
  Plant length (average): 20.2 cm
Barley; 0.6 ppm
  Dry weight of above-ground part (average): 112 mg
  Tillering (average): 3.79
Komatsuna turnip green; 42 days after seeding
  Increase of fresh weight of the above-ground part compared with the control area: 19%
Komatsuna turnip green; field, 1000 L per 10 a, applied twice, 22 days after seeding, measured 42 days after seeding
  Fresh weight of above-ground part (average): 40.6 g
Radish; 0.06 ppm
  Fresh weight of edible part (average): 2.26 g
Radish; 0.6 ppm
  Fresh weight of edible part (average): 2.54 g
Garland chrysanthemum; 0.06 ppm
  Fresh weight of above-ground part (average): 25.5 g
Garland chrysanthemum; 0.6 ppm
  Fresh weight of above-ground part (average): 24.8 g
Broccoli; 11 weeks after settling
  Increase of fresh weight of the edible part compared with the control area: 6%
Broccoli; 200 L per 10 a, applied every week (2 through 10 weeks) after settling, measured 11 weeks after settling
  Fresh weight of edible part (average): 39.2 g
